What was measured:
cocklebur = test: Test B pre/postemergence cocklebur; type: in vivo, Xanthium strumarium; conditions: Preemergence
Source text: (§1) Seeds of bedstraw (Galium aparine), blackgrass (Alopecurus myosuroides), surinam grass (Brachiaria decumbens), cocklebur (Xanthium strumarium), corn (Zea mays), crabgrass (Digitaria sanguinalis), giant foxtail (Setaria faberii), morningglory (Ipomoea hederacea), pigweed (Amaranthus retroflexus), rape (Brassica napus), soybean (Glycine max), sugar beet (Beta vulgaris), velvetleaf (Abutilon theophrasti), wheat (Triticum aestivum), wild oat (Avena fatua) and purple nutsedge (Cyperus rotundus) tubers were planted and treated preemnergence with test chemicals formulated in a non-phytotoxic solvent mixture which included a surfactant.
(§2) At the same time, these crop and weed species were also treated with postemergence applications of test chemicals formulated in the same manner. Plants ranged in height from 2 to 18 cm (1- to 4-leaf stage) for postemergence treatments. Plant species in the flood test consisted of rice (Oryza sativa), smallflower flatsedge (Cyperus difformis), duck salad (Heteranthera limosa) and bamyardgrass (Echinochloa crus-galli) grown to the 2-leaf stage for testing. Treated plants and controls were maintained in a greenhouse for twelve to sixteen days, after which all species were compared to controls and visually evaluated. Plant response ratings, summarized in Table B, are based on a scale of 0 to 10 where 0 is no effect and 10 is complete control. A dash (−) response means no test result.

bedstraw = test: Test B pre/postemergence bedstraw; type: in vivo, Galium aparine; conditions: Preemergence
Source text: as §1, §2

soybean = test: Test B pre/postemergence soybean; type: in vivo, Glycine max; conditions: Preemergence; for Plant response rating, Soybean: Rate 125 g/ha
Source text: as §1, §2

corn = test: Test B pre/postemergence corn; type: in vivo, Zea mays; conditions: Preemergence; for Plant response rating, Corn: Rate 125 g/ha
Source text: as §1, §2

surinam grass = test: Test B pre/postemergence surinam grass; type: in vivo, Brachiaria decumbens; conditions: Preemergence
Source text: as §1, §2

blackgrass = test: Test B pre/postemergence blackgrass; type: in vivo, Alopecurus myosuroides; conditions: Preemergence
Source text: as §1, §2

wild oat = test: Test B pre/postemergence wild oat; type: in vivo, Avena fatua; conditions: Preemergence; for Plant response rating, Wild oats: Rate 125 g/ha
Source text: as §1, §2

wheat = test: Test B pre/postemergence wheat; type: in vivo, Triticum aestivum; conditions: Preemergence; for Plant response rating, Wheat: Rate 125 g/ha
Source text: as §1, §2

crabgrass = test: Test B pre/postemergence crabgrass; type: in vivo, Digitaria sanguinalis; conditions: Preemergence; for Plant response rating, Crabgrass: Rate 125 g/ha
Source text: as §1, §2

giant foxtail = test: Test B pre/postemergence giant foxtail; type: in vivo, Setaria faberii; conditions: Preemergence; for Plant response rating, Giant foxtail: Rate 125 g/ha
Source text: as §1, §2

purple nutsedge = test: Test B pre/postemergence purple nutsedge; type: in vivo, Cyperus rotundus; conditions: Preemergence; for Plant response rating, Nutsedge: Rate 125 g/ha
Source text: as §1, §2

morningglory = test: Test B pre/postemergence morningglory; type: in vivo, Ipomoea hederacea; conditions: Preemergence; for Plant response rating, Morningglory: Rate 125 g/ha
Source text: as §1, §2

velvetleaf = test: Test B pre/postemergence velvetleaf; type: in vivo, Abutilon theophrasti; conditions: Preemergence; for Plant response rating, Velvetleaf: Rate 125 g/ha
Source text: as §1, §2

pigweed = test: Test B pre/postemergence pigweed; type: in vivo, Amaranthus retroflexus; conditions: Preemergence; for Plant response rating, Redroot pigweed: Rate 125 g/ha
Source text: as §1, §2

sugar beet = test: Test B pre/postemergence sugar beet; type: in vivo, Beta vulgaris; conditions: Preemergence; for Plant response rating, Sugarbeets: Rate 125 g/ha
Source text: as §1, §2

rape = test: Test B pre/postemergence rape; type: in vivo, Brassica napus; conditions: Preemergence; for Plant response rating, Rape: Rate 125 g/ha
Source text: as §1, §2

[1] = Rate 62 g/ha, scale of 0 to 10 where 0 is no effect and 10 is complete control
[2] = Rate 125 g/ha, scale of 0 to 10 where 0 is no effect and 10 is complete control
[3] = Rate 250 g/ha, scale 0 (no effect) to 10 (complete control)
[4] = Rate 500 g/ha, scale of 0 to 10 where 0 is no effect and 10 is complete control
[5] = scale of 0 to 10 where 0 is no effect and 10 is complete control
[6] = Rate 500 g/ha, scale 0 to 10 (0 no effect, 10 complete control)

CC(C)N(C(=O)n1oc(=O)n(C(CF)CCl)c1=O)c1ccc(F)cc1 (racemic) [Compound 707] was tested, and the “Cocklebur plant response rating” value (cocklebur; [1]) was 0, the “Plant response rating, Cocklebur” value (cocklebur; [2]) was 0 and the “Cocklebur plant response rating” value (cocklebur; [3]) was 0. The “Plant response rating, Cocklebur” value (cocklebur; [4]) was 0, the “Bedstraw plant response rating” value (bedstraw; [1]) was 7 and the “Plant response rating, Bedstraw” value (bedstraw; [2]) was 7. The “Bedstraw plant response rating” value (bedstraw; [3]) was 10, the “Plant response rating, Bedstraw” value (bedstraw; [4]) was 10 and the “Soybean plant response rating” value (soybean; [1]) was 0. For the same molecule, the “Plant response rating, Soybean” value (soybean; [5]) was 0, the “Soybean plant response rating” value (soybean; [3]) was 0 and the “Corn plant response rating” value (corn; [1]) was 0. The “Plant response rating, Corn” value (corn; [5]) was 0, the “Corn plant response rating” value (corn; [3]) was 2 and the “B. signalgrass plant response rating” value (surinam grass; [1]) was 6. For the same molecule, the “Plant response rating, B. signalgrass” value (surinam grass; [2]) was 7, the “B. signalgrass plant response rating” value (surinam grass; [3]) was 9 and the “Plant response rating, B. signalgrass” value (surinam grass; [4]) was 10. The “Blackgrass plant response rating” value (blackgrass; [1]) was 9, the “Plant response rating, Blackgrass” value (blackgrass; [2]) was 10 and the “Blackgrass plant response rating” value (blackgrass; [3]) was 10. For the same molecule, the “Plant response rating, Blackgrass” value (blackgrass; [4]) was 10, the “Wild oats plant response rating” value (wild oat; [1]) was 8 and the “Plant response rating, Wild oats” value (wild oat; [5]) was 8. The “Wild oats plant response rating” value (wild oat; [3]) was 9, the “Wheat plant response rating” value (wheat; [1]) was 2 and the “Plant response rating, Wheat” value (wheat; [5]) was 2. The “Wheat plant response rating” value (wheat; [3]) was 2, the “Crabgrass plant response rating” value (crabgrass; [1]) was 5 and the “Plant response rating, Crabgrass” value (crabgrass; [5]) was 9. For the same molecule, the “Crabgrass plant response rating” value (crabgrass; [3]) was 9, the “Giant foxtail plant response rating” value (giant foxtail; [1]) was 6 and the “Plant response rating, Giant foxtail” value (giant foxtail; [5]) was 10. The “Giant foxtail plant response rating” value (giant foxtail; [3]) was 10, the “Nutsedge plant response rating” value (purple nutsedge; [1]) was 0 and the “Plant response rating, Nutsedge” value (purple nutsedge; [5]) was 0. For the same molecule, the “Nutsedge plant response rating” value (purple nutsedge; [3]) was 0, the “Morningglory plant response rating” value (morningglory; [1]) was 3 and the “Plant response rating, Morningglory” value (morningglory; [5]) was 3. The “Morningglory plant response rating” value (morningglory; [3]) was 4, the “Velvetleaf plant response rating” value (velvetleaf; [1]) was 3 and the “Plant response rating, Velvetleaf” value (velvetleaf; [5]) was 5. The “Velvetleaf plant response rating” value (velvetleaf; [3]) was 5, the “Plant response rating, Redroot pigweed” value (pigweed; [5]) was 10 and the “Redroot pigweed plant response rating” value (pigweed; [3]) was 10. The “Sugarbeets plant response rating” value (sugar beet; [1]) was 6, the “Plant response rating, Sugarbeets” value (sugar beet; [5]) was 6 and the “Sugarbeets plant response rating” value (sugar beet; [3]) was 8. The “Rape plant response rating” value (rape; [1]) was 8, the “Plant response rating, Rape” value (rape; [5]) was 8 and the “Rape plant response rating” value (rape; [3]) was 10.
With CC(C)N(C(=O)n1oc(=O)n(C(C)C2=NOCC2)c1=O)c1ccccc1 (racemic) [Compound 729] the “Cocklebur plant response rating” value (cocklebur; [1]) was 0, the “Plant response rating, Cocklebur” value (cocklebur; [2]) was 0 and the “Cocklebur plant response rating” value (cocklebur; [3]) was 0. For the same molecule, the “Cocklebur plant response rating” value (cocklebur; [6]) was 0, the “Bedstraw plant response rating” value (bedstraw; [1]) was 0 and the “Plant response rating, Bedstraw” value (bedstraw; [2]) was 0. The “Bedstraw plant response rating” value (bedstraw; [3]) was 8, the “Bedstraw plant response rating” value (bedstraw; [6]) was 8 and the “Soybean plant response rating” value (soybean; [1]) was 0. For the same molecule, the “Plant response rating, Soybean” value (soybean; [5]) was 0, the “Soybean plant response rating” value (soybean; [3]) was 2 and the “Soybean plant response rating” value (soybean; [6]) was 2. The “Corn plant response rating” value (corn; [1]) was 0, the “Plant response rating, Corn” value (corn; [5]) was 0 and the “Corn plant response rating” value (corn; [3]) was 6. For the same molecule, the “Corn plant response rating” value (corn; [6]) was 9, the “B. signalgrass plant response rating” value (surinam grass; [1]) was 5 and the “Plant response rating, B. signalgrass” value (surinam grass; [2]) was 10. The “B. signalgrass plant response rating” value (surinam grass; [3]) was 10, the “B. signalgrass plant response rating” value (surinam grass; [6]) was 10 and the “Blackgrass plant response rating” value (blackgrass; [1]) was 6. The “Plant response rating, Blackgrass” value (blackgrass; [2]) was 10, the “Blackgrass plant response rating” value (blackgrass; [3]) was 10 and the “Blackgrass plant response rating” value (blackgrass; [6]) was 10. The “Wild oats plant response rating” value (wild oat; [1]) was 2, the “Plant response rating, Wild oats” value (wild oat; [5]) was 7 and the “Wild oats plant response rating” value (wild oat; [3]) was 10. For the same molecule, the “Wild oats plant response rating” value (wild oat; [6]) was 10, the “Wheat plant response rating” value (wheat; [1]) was 0 and the “Plant response rating, Wheat” value (wheat; [5]) was 0. For the same molecule, the “Wheat plant response rating” value (wheat; [3]) was 4, the “Wheat plant response rating” value (wheat; [6]) was 6 and the “Crabgrass plant response rating” value (crabgrass; [1]) was 7. The “Plant response rating, Crabgrass” value (crabgrass; [5]) was 9, the “Crabgrass plant response rating” value (crabgrass; [3]) was 9 and the “Crabgrass plant response rating” value (crabgrass; [6]) was 10. For the same molecule, the “Giant foxtail plant response rating” value (giant foxtail; [1]) was 9, the “Plant response rating, Giant foxtail” value (giant foxtail; [5]) was 9 and the “Giant foxtail plant response rating” value (giant foxtail; [3]) was 9. The “Giant foxtail plant response rating” value (giant foxtail; [6]) was 10, the “Nutsedge plant response rating” value (purple nutsedge; [1]) was 0 and the “Plant response rating, Nutsedge” value (purple nutsedge; [5]) was 0. For the same molecule, the “Nutsedge plant response rating” value (purple nutsedge; [6]) was 2, the “Morningglory plant response rating” value (morningglory; [1]) was 0 and the “Plant response rating, Morningglory” value (morningglory; [5]) was 0. The “Morningglory plant response rating” value (morningglory; [3]) was 2, the “Morningglory plant response rating” value (morningglory; [6]) was 8 and the “Velvetleaf plant response rating” value (velvetleaf; [1]) was 0. For the same molecule, the “Plant response rating, Velvetleaf” value (velvetleaf; [5]) was 2, the “Velvetleaf plant response rating” value (velvetleaf; [3]) was 4 and the “Velvetleaf plant response rating” value (velvetleaf; [6]) was 8. The “Redroot pigweed plant response rating” value (pigweed; [1]) was 7, the “Plant response rating, Redroot pigweed” value (pigweed; [5]) was 9 and the “Redroot pigweed plant response rating” value (pigweed; [3]) was 10. For the same molecule, the “Redroot pigweed plant response rating” value (pigweed; [6]) was 10, the “Sugarbeets plant response rating” value (sugar beet; [1]) was 0 and the “Plant response rating, Sugarbeets” value (sugar beet; [5]) was 0. For the same molecule, the “Sugarbeets plant response rating” value (sugar beet; [3]) was 0, the “Sugarbeets plant response rating” value (sugar beet; [6]) was 7 and the “Rape plant response rating” value (rape; [1]) was 0. For the same molecule, the “Plant response rating, Rape” value (rape; [5]) was 2, the “Rape plant response rating” value (rape; [3]) was 3 and the “Rape plant response rating” value (rape; [6]) was 10.
